Where two headings read alike, the source gives them in different places.

A word on the IC50: it is the midpoint of a concentration-inhibition curve.

The target of assay [1] is human plasma kallikrein (Homo sapiens (Human), UniProt P03952). Briefly: Kallikrein inhibition assay (FLINT) utilizing a quenched AMC peptide substrate. Particulars: 30 min preincubation, read-out: Kallikrein Kin Inh IC50. In kind it is biochemical. In outline: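 Fluorogenic Z-Gly-Pro-Arg-AMC cleavage (50 μM substrate, 2 nM kallikrein, Tris pH 7.5, CaCl2, BSA, CHAPS, 2% DMSO) read kinetically at 340/440 nm for 30 min after 30-min compound pre-incubation. Compounds in 11-point 3-fold series from 1 μM; percent inhibition fitted to four-parameter equation for IC50.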

Assay [2] deals with Factor XIa (Homo sapiens (Human), UniProt P03951). Briefly: Factor XIa inhibition assay (FLINT) utilizing a fluorophore-quencher pair peptide substrate. In kind it is biochemical. The following applies: 30 min preincubation, kinetic reads over 30 min, read-out: FXIa Kin Inh IC50. In a few lines: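 FXIa ([…]) preincubated 30 min with compound (11-point 3-fold dilution, top 100 nM, 2% DMSO), then 15 μM quenched FXI Arg146-based peptide added; Tris pH 7.5, CaCl2, BSA, CHAPS. Fluorescence 485/520 nm read kinetically every 5 min over 30 min at RT; IC50 by 4-parameter fit.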

Setting [3] is: 5Fam-[…]-K5Tamra substrate 15 μM.
Setting [4] is: kinetic reads over 30 min, Z-Gly-Pro-Arg-AMC substrate 50 μM.
Where [5] appears, read: 5Fam-KLTRAETV-K5Tamra substrate 15 μM.

human plasma kallikrein, sequence (P03952 391-638): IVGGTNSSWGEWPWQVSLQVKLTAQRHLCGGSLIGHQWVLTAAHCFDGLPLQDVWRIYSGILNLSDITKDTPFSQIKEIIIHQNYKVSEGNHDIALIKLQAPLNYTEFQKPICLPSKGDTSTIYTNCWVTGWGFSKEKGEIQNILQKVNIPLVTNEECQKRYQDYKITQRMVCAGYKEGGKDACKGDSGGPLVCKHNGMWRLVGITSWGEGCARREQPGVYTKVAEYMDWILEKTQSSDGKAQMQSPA
human plasma kallikrein, sequence (P03952 20-390 partner): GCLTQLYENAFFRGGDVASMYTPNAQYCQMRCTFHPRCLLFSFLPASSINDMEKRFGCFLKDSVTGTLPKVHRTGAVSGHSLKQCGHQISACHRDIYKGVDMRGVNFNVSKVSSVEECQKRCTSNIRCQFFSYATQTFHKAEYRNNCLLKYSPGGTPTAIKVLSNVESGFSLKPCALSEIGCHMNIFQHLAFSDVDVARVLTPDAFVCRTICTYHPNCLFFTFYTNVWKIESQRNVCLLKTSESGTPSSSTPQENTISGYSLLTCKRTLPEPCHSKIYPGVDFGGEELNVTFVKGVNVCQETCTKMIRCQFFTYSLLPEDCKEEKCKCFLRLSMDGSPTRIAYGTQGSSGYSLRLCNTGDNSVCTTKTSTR
Factor XIa, sequence (P03951 388-625): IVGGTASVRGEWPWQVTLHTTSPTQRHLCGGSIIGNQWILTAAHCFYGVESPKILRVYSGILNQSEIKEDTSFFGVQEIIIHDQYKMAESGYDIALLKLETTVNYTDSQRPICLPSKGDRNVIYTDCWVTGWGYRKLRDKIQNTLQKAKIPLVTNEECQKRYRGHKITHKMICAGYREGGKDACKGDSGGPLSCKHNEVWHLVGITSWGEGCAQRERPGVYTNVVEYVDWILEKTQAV
Factor XIa, sequence (P03951 19-387 partner): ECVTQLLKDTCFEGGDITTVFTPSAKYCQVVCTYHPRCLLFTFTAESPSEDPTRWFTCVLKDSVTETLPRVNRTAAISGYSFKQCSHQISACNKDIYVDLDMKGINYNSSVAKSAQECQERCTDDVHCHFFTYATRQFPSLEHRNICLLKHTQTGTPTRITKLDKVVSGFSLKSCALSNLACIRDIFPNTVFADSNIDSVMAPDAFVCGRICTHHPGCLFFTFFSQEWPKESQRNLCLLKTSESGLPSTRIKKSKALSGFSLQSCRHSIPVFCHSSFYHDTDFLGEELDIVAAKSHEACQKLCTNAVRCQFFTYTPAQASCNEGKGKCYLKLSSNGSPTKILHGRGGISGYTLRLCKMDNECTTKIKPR

Regarding `C[C@H]1C[C@@H](c2ncc(-c3ccc(N)nc3F)[nH]2)N2C(=O)C=C(c3c(-n4cnnn4)ccc(Cl)c3F)C[C@H]12` (relative stereo) [Example 344, (1*S,3S,8a*R)-3-(5-(6-Amino-2-fluoropyridin-3-yl)-1H-imidazol-2-yl)-7-(3-chloro-2-fluoro-6-(1H-tetrazol-1-yl)phenyl)-1-methyl-2,3,8,8a-tetrahydroindolizin-5(1H)-one], the half-maximal inhibitory concentration (IC50) in assay [1] (μM, kinetic reads) is 1.3 µM; in assay [2] (setting [3]), 202 nM.
Regarding `O=C1C=C(c2c(-n3cnnn3)ccc(Cl)c2F)CC2CC[C@@H](c3nc(-c4ccnc(OCCO)c4)c[nH]3)N12` (single isomer, unassigned) [Example 9], the half-inhibitory concentration (IC50) was 0.0085 µM in assay [1] (setting [4]) and 2.1 nM in assay [2] (setting [5]).
As to `O=C1C=C(c2c(-n3cnnn3)ccc(Cl)c2F)C[C@H]2CC[C@@H](c3ncc(-c4c[nH]c5cnccc45)[nH]3)N12` (single isomer, unassigned) [Example 19], the IC50 was determined as 0.0074 µM in assay [1] (setting [4]) and 2.4 nM in assay [2] (setting [5]).
For `CC(O)COc1nccc(-c2cnc([C@@H]3CC[C@@H]4CC(c5c(-n6cnnn6)ccc(Cl)c5F)=CC(=O)N43)[nH]2)c1F` (single isomer, unassigned) [Example 28] the same measures were 0.0094 µM and 1.3 nM.
For `CC(O)COc1nccc(-c2cnc([C@@H]3CC[C@H]4CC(c5c(-n6cnnn6)ccc(Cl)c5F)=CC(=O)N43)[nH]2)c1F` (single isomer, unassigned) [Example 29] the same measures were 0.307 µM and 57.9 nM.
With `O=C1C=C(c2c(-n3cnnn3)ccc(Cl)c2F)C[C@H]2CC[C@@H](c3nc(F)c(-c4ccnc(-c5ccn[nH]5)c4)[nH]3)N12` (single isomer, unassigned) [Example 31], the IC50 in assay [1] (setting [4]) stood at 0.0018 µM; in assay [2] (setting [5]), 0.7 nM.
As to `Cc1nc([C@@H]2CC[C@@H]3CC(c4c(-n5cnnn5)ccc(Cl)c4F)=CC(=O)N32)[nH]c1-c1ccnc(CO)c1F` (single isomer, unassigned) [Example 35], the 50% inhibitory concentration (IC50) in assay [1] (setting [4]) was determined as 0.245 µM; in assay [2] (setting [3]), 60.1 nM.
For the molecule `[2H]C([2H])(O)c1nccc(-c2cnc([C@@H]3CC[C@]4([2H])CC(c5c(-n6cnnn6)ccc(Cl)c5F)=CC(=O)N34)[nH]2)c1F` (single isomer, unassigned) [Example 36], the IC50 in assay [1] (setting [4]) was found to be 0.0337 µM; in assay [2] (setting [5]), 5.1 nM.
Regarding `Nc1ccnn1-c1cc(-c2cnc([C@H]3CC[C@@H]4CC(c5c(-n6cnnn6)ccc(Cl)c5F)=CC(=O)N43)[nH]2)ccn1` (single isomer, unassigned) [Example 49, (3R*,8aR)-3-(5-(2-(5-amino-1H-pyrazol-1-yl)pyridin-4-yl)-1H-imidazol-2-yl)-7-(3-chloro-2-fluoro-6-(1H-tetrazol-1-yl)phenyl)-2,3,8,8a-tetrahydroindolizin-5(1H)-one], the IC50 in assay [1] (setting [4]) was 0.0114 µM; in assay [2] (setting [3]), 31.3 nM.
For `O=C(O)c1nccc(-c2cnc([C@@H]3CC[C@@H]4CC(c5cc(Cl)ccc5-n5cc(C(F)(F)F)nn5)=CC(=O)N43)[nH]2)c1F` (single isomer, unassigned) [Example 54, 4-(2-((3S*,8aR)-7-(5-chloro-2-(4-(trifluoromethyl)-1H-1,2,3-triazol-1-yl)phenyl)-5-oxo-1,2,3,5,8,8a-hexahydroindolizin-3-yl)-1H-imidazol-5-yl)-3-fluoropicolinic acid] the same measures were 0.0679 µM and 0.8 nM.
In the case of `Nc1ccn(-c2nccc(-c3cnc([C@H]4CC[C@@H]5CC(c6c(-n7cnnn7)ccc(Cl)c6F)=CC(=O)N54)[nH]3)c2F)n1` (single isomer, unassigned) [Example 63], the figures for the IC50 in assay [1] (setting [4]) and in assay [2] (setting [3]) were 0.0062 µM and 6.9 nM, respectively.
`O=C1C=C(c2c(-n3cnnn3)ccc(Cl)c2F)CC2CCC(c3nc(-c4cccc(-c5ccn[nH]5)n4)c(F)[nH]3)N12` (single isomer, unassigned) [Example 66, (3S*)-3-(4-(6-(1H-pyrazol-5-yl)pyridin-2-yl)-5-fluoro-1H-imidazol-2-yl)-7-(3-chloro-2-fluoro-6-(1H-tetrazol-1-yl)phenyl)-2,3,8,8a-tetrahydroindolizin-5(1H)-one]: the IC50 in assay [1] (setting [4]) was found to be 0.0259 µM; in assay [2] (setting [3]), 55 nM.
Turning to `Nc1nccc(-c2[nH]c([C@@H]3CC[C@@H]4CC(c5cc(Cl)ccc5-n5cnnn5)=CC(=O)N43)nc2F)c1F` (single isomer, unassigned) [Example 70, (3S*,8aR)-3-(5-(2-amino-3-fluoropyridin-4-yl)-4-fluoro-1H-imidazol-2-yl)-7-(5-chloro-2-(1H-tetrazol-1-yl)phenyl)-2,3,8,8a-tetrahydroindolizin-5(1H)-one], the IC50 stood at 0.0026 µM in assay [1] (setting [4]) and 0.3 nM in assay [2] (setting [3]).
In the case of `O=C1C=C(c2c(-n3cnnn3)ccc(Cl)c2F)C[C@H]2CC[C@H](c3ncc(-c4ccnc(-n5ccnn5)c4F)[nH]3)N12` (single isomer, unassigned) [Example 71, (3R*,8aR)-7-(3-chloro-2-fluoro-6-(1H-tetrazol-1-yl)phenyl)-3-(5-(3-fluoro-2-(1H-1,2,3-triazol-1-yl)pyridin-4-yl)-1H-imidazol-2-yl)-2,3,8,8a-tetrahydroindolizin-5(1H)-one], the IC50 worked out at 0.0194 µM in assay [1] (setting [4]) and 13.8 nM in assay [2] (setting [3]).
Turning to `Nc1ccn(-c2cc(-c3cnc([C@H]4CC[C@@H]5CC(c6c(-n7cnnn7)ccc(Cl)c6F)=CC(=O)N54)[nH]3)ccn2)n1` (single isomer, unassigned) [Example 72, (3R*,8aR)-3-(5-(2-(3-amino-1H-pyrazol-1-yl)pyridin-4-yl)-1H-imidazol-2-yl)-7-(3-chloro-2-fluoro-6-(1H-tetrazol-1-yl)phenyl)-2,3,8,8a-tetrahydroindolizin-5(1H)-one], the IC50 in assay [1] (setting [4]) came out at 0.0023 µM; in assay [2] (setting [3]), 6.5 nM.
For `O=C1C=C(c2c(-n3cnnn3)ccc(Cl)c2F)C[C@H]2CC[C@@H](c3ncc(-c4ccnc(N[C@H]5CCOC5)c4F)[nH]3)N12` (single isomer, unassigned) [Example 73, (3S,8aR*)-7-(3-chloro-2-fluoro-6-(1H-tetrazol-1-yl)phenyl)-3-(5-(3-fluoro-2-(((S)-tetrahydrofuran-3-yl)amino)pyridin-4-yl)-1H-imidazol-2-yl)-2,3,8,8a-tetrahydroindolizin-5(1H)-one] the same measures were 0.0027 µM and 0.6 nM.
In the same order, the values of `O=C1C=C(c2c(-n3cnnn3)ccc(Cl)c2F)C[C@@H]2CC[C@@H](c3ncc(-c4ccnc(N[C@H]5CCOC5)c4F)[nH]3)N12` (single isomer, unassigned) [Example 74, (3S,8aS*)-7-(3-chloro-2-fluoro-6-(1H-tetrazol-1-yl)phenyl)-3-(5-(3-fluoro-2-(((S)-tetrahydrofuran-3-yl)amino)pyridin-4-yl)-1H-imidazol-2-yl)-2,3,8,8a-tetrahydroindolizin-5(1H)-one] are 0.0049 µM and 2.6 nM.
As to `Nc1nccc(-c2cnc([C@@H]3CC[C@@H]4CC(c5cc(Cl)ccc5-n5cnnn5)=CC(=O)N43)[nH]2)c1F` (single isomer, unassigned) [Example 90, (3S*,8aR)-3-(5-(2-amino-3-fluoropyridin-4-yl)-1H-imidazol-2-yl)-7-(5-chloro-2-(1H-tetrazol-1-yl)phenyl)-2,3,8,8a-tetrahydroindolizin-5(1H)-one], the concentration for half-maximal inhibition (IC50) in assay [1] (setting [4]) came out at 0.0055 µM; in assay [2] (setting [3]) it was 0.5 nM.
Turning to `O=C1C=C(c2c(-n3cnnn3)ccc(Cl)c2F)C[C@H]2CC[C@H](c3nc(F)c(-c4ccnc(-n5cncn5)c4F)[nH]3)N12` (single isomer, unassigned) [Example 92, 7-[3-Chloro-2-fluoro-6-(tetrazol-1-yl)phenyl]-3-[4-fluoro-5-[3-fluoro-2-(1,2,4-triazol-1-yl)-4-pyridyl]-1H-imidazol-2-yl]-2,3,8,8a-tetrahydro-1H-indolizin-5-one], the half-maximal inhibitory concentration (IC50) amounted to 0.006 µM in assay [1] (setting [4]) and 3.7 nM in assay [2] (setting [5]).
Consider `CNc1ccc(-c2cnc([C@@H]3CC[C@@H]4CC(c5cc(Cl)ccc5-n5cnnn5)=CC(=O)N43)[nH]2)c(F)n1` (single isomer, unassigned) [Example 98, (3S*,8aR)-7-(5-chloro-2-(1H-tetrazol-1-yl)phenyl)-3-(5-(2-fluoro-6-(methylamino)pyridin-3-yl)-1H-imidazol-2-yl)-2,3,8,8a-tetrahydroindolizin-5(1H)-one], for which the IC50 in assay [1] (setting [4]) amounted to 0.009 µM; in assay [2] (setting [3]), 0.6 nM.
As for `N#CC1CN(c2nccc(-c3cnc([C@@H]4CC[C@@H]5CC(c6c(-n7cnnn7)ccc(Cl)c6F)=CC(=O)N54)[nH]3)c2F)C1` (single isomer, unassigned) [Example 100, 1-(4-(2-((3S*,8aR)-7-(3-chloro-2-fluoro-6-(1H-tetrazol-1-yl)phenyl)-5-oxo-1,2,3,5,8,8a-hexahydroindolizin-3-yl)-1H-imidazol-5-yl)-3-fluoropyridin-2-yl)azetidine-3-carbonitrile], the IC50 in assay [1] (setting [4]) is 0.0051 µM; in assay [2] (setting [3]), 1.9 nM.
`N#CC1CN(c2nccc(-c3cnc([C@H]4CC[C@@H]5CC(c6c(-n7cnnn7)ccc(Cl)c6F)=CC(=O)N54)[nH]3)c2F)C1` (single isomer, unassigned) [Example 102, 1-(4-(24(3R*,8aR)-7-(3-chloro-2-fluoro-6-(1H-tetrazol-1-yl)phenyl)-5-oxo-1,2,3,5,8,8a-hexahydroindolizin-3-yl)-1H-imidazol-5-yl)-3-fluoropyridin-2-yl)azetidine-3-carbonitrile]: the IC50 in assay [1] (setting [4]) was 0.0096 µM; in assay [2] (setting [3]), 10.3 nM.
